How the values were obtained:
Settings in all cases: 72 h
Caco-2 [1] = test: cell viability relative to DMSO; higher = less toxic
Calu-3 [2] = test: as above
HepG2 [3] = test: as above
U2OS [4] = test: as above
Vero E6 [5] = test: as above
Caco-2 [6] = test: relative viability EC50 (midpoint between 100% and the lowest measured viability); higher = less toxic
Calu-3 [7] = test: as above
HepG2 [8] = test: as above
U2OS [9] = test: as above
Vero E6 [10] = test: as above
Caco-2 [11] = test: drug sensitivity score (DSS) for viability; higher = more toxic; extreme values may be limits of the assay
Calu-3 [12] = test: as above
HepG2 [13] = test: as above
U2OS [14] = test: as above
Vero E6 [15] = test: as above

Q: Which results are given for `O=c1[nH]c2cc(C(F)(F)F)c(N3CCOCC3)cc2n(CP(=O)(O)O)c1=O`?
A: cell viability (Caco-2 [1]; 1 nM): 102%; cell viability (Caco-2 [1]; 10 nM): 92.8%; cell viability (Caco-2 [1]; 100 nM): 98.5%; cell viability (Caco-2 [1]; 1000 nM): 106%; cell viability (Caco-2 [1]; 10000 nM): 93.9%; cell viability (Calu-3 [2]; 1 nM): 108%; cell viability (Calu-3 [2]; 10 nM): 106%; cell viability (Calu-3 [2]; 100 nM): 98%; cell viability (Calu-3 [2]; 1000 nM): 99.7%; cell viability (Calu-3 [2]; 10000 nM): 109%; cell viability (HepG2 [3]; 1 nM): 95.4%; cell viability (HepG2 [3]; 10 nM): 104%; cell viability (HepG2 [3]; 100 nM): 107%; cell viability (HepG2 [3]; 1000 nM): 90.5%; cell viability (HepG2 [3]; 10000 nM): 99.1%; cell viability (U2OS [4]; 1 nM): 97.3%; cell viability (U2OS [4]; 10 nM): 102%; cell viability (U2OS [4]; 100 nM): 103%; cell viability (U2OS [4]; 1000 nM): 104%; cell viability (U2OS [4]; 10000 nM): 99.7%; cell viability (Vero E6 [5]; 1 nM): 105%; cell viability (Vero E6 [5]; 10 nM): 99.8%; cell viability (Vero E6 [5]; 100 nM): 99.6%; cell viability (Vero E6 [5]; 1000 nM): 102%; cell viability (Vero E6 [5]; 10000 nM): 101%; relative viability EC50 (Caco-2 [6]): > 10 µM; relative viability EC50 (Calu-3 [7]): > 10 µM; relative viability EC50 (HepG2 [8]): > 10 µM; relative viability EC50 (U2OS [9]): > 10 µM; relative viability EC50 (Vero E6 [10]): > 10 µM; drug sensitivity score (Caco-2 [11]): 0; drug sensitivity score (Calu-3 [12]): 0; drug sensitivity score (HepG2 [13]): 0; drug sensitivity score (U2OS [14]): 0; drug sensitivity score (Vero E6 [15]): 0

Q: What does the source list for `Cc1nnc(C(C)C)n1C1C[C@H]2CC[C@@H](C1)N2CC[C@H](NC(=O)C1CCC(F)(F)CC1)c1ccccc1` (stereo in doubt) [maraviroc]?
A: cell viability (Caco-2 [1]; 1 nM): 101%; cell viability (Caco-2 [1]; 10 nM): 93.8%; cell viability (Caco-2 [1]; 100 nM): 99.5%; cell viability (Caco-2 [1]; 1000 nM): 97.9%; cell viability (Caco-2 [1]; 10000 nM): 108%; cell viability (Calu-3 [2]; 1 nM): 107%; cell viability (Calu-3 [2]; 10 nM): 89.8%; cell viability (Calu-3 [2]; 100 nM): 101%; cell viability (Calu-3 [2]; 1000 nM): 108%; cell viability (Calu-3 [2]; 10000 nM): 114%; cell viability (HepG2 [3]; 1 nM): 114%; cell viability (HepG2 [3]; 10 nM): 97.3%; cell viability (HepG2 [3]; 100 nM): 94.4%; cell viability (HepG2 [3]; 1000 nM): 86.5%; cell viability (HepG2 [3]; 10000 nM): 101%; cell viability (U2OS [4]; 1 nM): 99.4%; cell viability (U2OS [4]; 10 nM): 95.1%; cell viability (U2OS [4]; 100 nM): 100%; cell viability (U2OS [4]; 1000 nM): 99.7%; cell viability (U2OS [4]; 10000 nM): 106%; cell viability (Vero E6 [5]; 1 nM): 97.4%; cell viability (Vero E6 [5]; 10 nM): 97.8%; cell viability (Vero E6 [5]; 100 nM): 97.1%; cell viability (Vero E6 [5]; 1000 nM): 92.3%; cell viability (Vero E6 [5]; 10000 nM): 104%; relative viability EC50 (Caco-2 [6]): > 10 µM; relative viability EC50 (Calu-3 [7]): > 10 µM; relative viability EC50 (HepG2 [8]): > 10 µM; relative viability EC50 (U2OS [9]): > 10 µM; relative viability EC50 (Vero E6 [10]): > 10 µM; drug sensitivity score (Caco-2 [11]): 0; drug sensitivity score (Calu-3 [12]): 0; drug sensitivity score (HepG2 [13]): 0; drug sensitivity score (U2OS [14]): 0; drug sensitivity score (Vero E6 [15]): 0

Source: the supplement of paper PMC13380429
